In experiment [1] the target is T1, human GPR40 (Homo sapiens, UniProt O14842). Briefly: FDSS-based intracellular calcium assay (Human GRP40 in vitro assay). It is filed as cell-based. Also noted: 3xFLAG; expressed in transfected cells. As to conditions: cells expressing GPR40, intracellular Ca2+ response, FDSS reader; read-out: hGPR40 EC50. In short, it runs like this:
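GPR40-expressing cells, plated overnight in serum-free phenol red-free DMEM, loaded with Fluo-3 in HBSS with 1.7 mM probenecid for 30 min at 37° C. Compounds in DMSO, diluted in assay buffer, added as 3× solutions; intracellular Ca^2+ response read on FDSS.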
Background: Calcium flux is commonly read through the fluorescence of an indicator in the cells.

Experiment [2] has as its target T1, human GPR40.

From patent US9714231B2, “Pyrrolidine GPR40 modulators” (BRISTOL-MYERS SQUIBB COMPANY, priority 2012, dated 2017) come the findings set out here.

Structures can show the parent of a compound that is named as a salt. Where two headings read alike, the source gives them in different places.

T1 sequence (O14842 whole entry): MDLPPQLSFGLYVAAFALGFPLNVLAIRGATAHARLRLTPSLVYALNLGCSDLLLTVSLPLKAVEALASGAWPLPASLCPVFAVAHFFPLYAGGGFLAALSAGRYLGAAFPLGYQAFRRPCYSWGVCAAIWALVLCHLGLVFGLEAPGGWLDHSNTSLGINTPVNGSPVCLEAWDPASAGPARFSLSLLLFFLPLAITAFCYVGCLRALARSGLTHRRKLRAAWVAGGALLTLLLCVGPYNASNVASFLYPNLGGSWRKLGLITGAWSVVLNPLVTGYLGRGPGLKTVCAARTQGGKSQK

As a reminder, the EC50 is the concentration needed to bring the measured effect to its halfway point. For `COc1ccc(F)c(N2CCC(Oc3ccc(N4CC(C(F)(F)F)C(C)C4CC(=O)O)cc3)CC2)c1` (single isomer, unassigned) [Example 26, Isomer 1, 2-((2,3-trans,3,4-trans)-1-(4-((1-(2-Fluoro-5-methoxyphenyl)piperidin-4-yl)oxy)phenyl)-3-methyl-4-(trifluoromethyl)pyrrolidin-2-yl)acetic acid, HCl], the EC50 in experiment [1] was found to be 220 nM; in experiment [2], 140 nM. As for `COc1cc(N2CCC(Oc3ccc(N4C[C@H](OC)C[C@@H]4CC(=O)O)cn3)C(C)C2)c(C2CCCC2)cn1` (stereo partly drawn) [Example 149, 2-((2R,4R)-1-(6-(((3,4-trans)-1-(5-Cyclopentyl-2-methoxypyridin-4-yl)-3-methylpiperidin-4-yl)oxy)pyridin-3-yl)-4-methoxypyrrolidin-2-yl)acetic acid], the EC50 in experiment [1] was 160 nM. The same measure, in the same setting: to `COc1cc(N2CCC(Oc3ccc(N4C[C@H](OC)[C@@H](C)[C@@H]4CC(=O)O)cn3)CC2)c(C2=CCCC2(C)C)cn1` [Example 152, 2-((2S,3S,4R)-1-(6-((1-(5-(5,5-Dimethylcyclopent-1-en-1-yl)-2-methoxypyridin-4-yl)piperidin-4-yl)oxy)pyridin-3-yl)-4-methoxy-3-methylpyrrolidin-2-yl)acetic acid, HCl] belongs 68 nM; to `COc1cc(N2CC[C@@H](Oc3ccc(N4C[C@H](OC)[C@@H](C)[C@@H]4CC(=O)O)cn3)[C@H](C)C2)c(C2=CCCC2(C)C)cn1` [Example 153, 2-((2S,3S,4R)-1-(6-(((3R,4R)-1-(5-(5,5-Dimethylcyclopent-1-en-1-yl)-2-methoxypyridin-4-yl)-3-methylpiperidin-4-yl)oxy)pyridin-3-yl)-4-methoxy-3-methylpyrrolidin-2-yl)acetic acid, HCl], 200 nM. Still for that read-out and setting: the figure for `COc1cc(N2CCC(Oc3ccc(N4CC[C@@H](C)[C@@H]4CC(=O)O)cc3)C(C)C2)c(Cl)cn1` (stereo partly drawn) [Example 154, 2-((2S,3R)-1-(4-(((3,4-trans)-1-(5-Chloro-2-methoxypyridin-4-yl)-3-methylpiperidin-4-yl)oxy)phenyl)-3-methylpyrrolidin-2-yl)acetic acid, TFA] is 110 nM; for `COc1cc(N2CCC(Oc3ccc(N4C[C@H](F)[C@@H](C)[C@@H]4CC(=O)O)cc3F)C(C)C2)c(Cl)cn1` (stereo partly drawn) [Example 156, 2-((2S,3S,4R)-1-(4-(((3,4-trans)-1-(5-Chloro-2-methoxypyridin-4-yl)-3-methylpiperidin-4-yl)oxy)-3-fluorophenyl)-4-fluoro-3-methylpyrrolidin-2-yl)acetic acid] it is 63 nM.

In the case of `CCO[C@H]1CN(c2ccc(OC3CCN(c4cc(OC)ncc4Cl)CC3C)cc2)[C@@H](CC(=O)O)[C@@H]1C` (stereo partly drawn) [Example 158, 2-((2S,3S,4R)-1-(4-(((3,4-trans)-1-(5-Chloro-2-methoxypyridin-4-yl)-3-methylpiperidin-4-yl)oxy)phenyl)-4-ethoxy-3-methylpyrrolidin-2-yl)acetic acid, TFA], in experiment [1], the EC50 is 160 nM. `COc1cc(N2CCC(Oc3ncc(N4C[C@H](OC)[C@@H](C)[C@@H]4CC(=O)O)cc3F)C(C)C2)c(Cl)cn1` (stereo partly drawn) [Example 159, 2-((2S,3S,4R)-1-(6-(((3,4-trans)-1-(5-Chloro-2-methoxypyridin-4-yl)-3-methylpiperidin-4-yl)oxy)-5-fluoropyridin-3-yl)-4-methoxy-3-methylpyrrolidin-2-yl)acetic acid]: the EC50 in experiment [1] is 85 nM. With `CCCCOc1cc(N2C[C@H](OC)[C@@H](C)[C@@H]2CC(=O)O)cnc1OC1CCN(c2cc(OC)ncc2Cl)CC1C` (stereo partly drawn) [Example 160, 2-((2S,3S,4R)-1-(5-Butoxy-6-(((3,4-trans)-1-(5-chloro-2-methoxypyridin-4-yl)-3-methylpiperidin-4-yl)oxy)pyridin-3-yl)-4-methoxy-3-methylpyrrolidin-2-yl)acetic acid], the EC50 in experiment [1] was found to be 86 nM. Still for that read-out and setting: to `CCCCCO[C@H]1CN(c2ccc(OC3CCN(c4cc(OC)ncc4Cl)CC3C)cc2)[C@@H](CC(=O)O)[C@@H]1C` (stereo partly drawn) [Example 162, 2-((2S,3S,4R)-1-(4-(((3,4-trans)-1-(5-Chloro-2-methoxypyridin-4-yl)-3-methylpiperidin-4-yl)oxy)phenyl)-3-methyl-4-(pentyloxy)pyrrolidin-2-yl)acetic acid, TFA] belongs 63 nM; to `COc1cc(N2CCC(Oc3ncc(N4C[C@H](F)[C@@H](C)[C@@H]4CC(=O)O)cc3F)C(C)C2)c(Cl)cn1` (stereo partly drawn) [Example 164, 2-((2S,3S,4R)-1-(6-(((3,4-trans)-1-(5-Chloro-2-methoxypyridin-4-yl)-3-methylpiperidin-4-yl)oxy)-5-fluoropyridin-3-yl)-4-fluoro-3-methylpyrrolidin-2-yl)acetic acid], 110 nM; to `COc1cc(N2CCC(Oc3ncc(N4C[C@H](OC)[C@@H](C)[C@@H]4CC(=O)O)cc3C(F)(F)F)C(C)C2)c(Cl)cn1` (stereo partly drawn) [Example 165, 2-((2S,3S,4R)-1-(6-(((3,4-trans)-1-(5-Chloro-2-methoxypyridin-4-yl)-3-methylpiperidin-4-yl)oxy)-5-(trifluoromethyl)pyridin-3-yl)-4-methoxy-3-methylpyrrolidin-2-yl)acetic acid], 47 nM. Still for that read-out and setting: to `COc1cc(N2CCC(Oc3ccc(N4C[C@H](OC)[C@@H](C)[C@@H]4CC(=O)O)nc3)C(C)C2)c(Cl)cn1` (stereo partly drawn) [Example 166, 2-((2S,3S,4R)-1-(5-(((3,4-trans)-1-(5-Chloro-2-methoxypyridin-4-yl)-3-methylpiperidin-4-yl)oxy)pyridin-2-yl)-4-methoxy-3-methylpyrrolidin-2-yl)acetic acid] belongs 420 nM. Take `COc1cc(N2CCC(Oc3ncc(N4C[C@H](OC)[C@@H](C)[C@@H]4CC(=O)O)cc3OC(C)C)C(C)C2)c(Cl)cn1` (stereo partly drawn) [Example 167, 2-((2S,3S,4R)-1-(6-(((3,4-trans)-1-(5-Chloro-2-methoxypyridin-4-yl)-3-methylpiperidin-4-yl)oxy)-5-isopropoxypyridin-3-yl)-4-methoxy-3-methylpyrrolidin-2-yl)acetic acid]: in experiment [1], the EC50 is 45 nM.

As to `COc1cc(N2CCC(Oc3ncc(N4C[C@H](OC)[C@@H](C)[C@H]4CC(=O)O)cc3F)C(C)C2)c(Cl)cn1` (stereo partly drawn) [Example 168, 2-((2R,3S,4R)-1-(6-(((3,4-trans)-1-(5-Chloro-2-methoxypyridin-4-yl)-3-methylpiperidin-4-yl)oxy)-5-fluoropyridin-3-yl)-4-methoxy-3-methylpyrrolidin-2-yl)acetic acid], the concentration giving a half-maximal response (EC50) in experiment [1] was found to be 500 nM. Take `COc1cc(N2CCC(Oc3cnc(N4C[C@H](OC)[C@@H](C)[C@@H]4CC(=O)O)nc3)C(C)C2)c(Cl)cn1` (stereo partly drawn) [Example 170, 2-((2S,3S,4R)-1-(5-(((3,4-trans)-1-(5-Chloro-2-methoxypyridin-4-yl)-3-methylpiperidin-4-yl)oxy)pyrimidin-2-yl)-4-methoxy-3-methylpyrrolidin-2-yl)acetic acid]: in experiment [1], the EC50 worked out at 1700 nM. Consider `COc1cc(N2CCC(Oc3cnc(N4C[C@H](OC)[C@@H](C)[C@@H]4CC(=O)O)c(F)c3)C(C)C2)c(Cl)cn1` (stereo partly drawn) [Example 171, 2-((2S,3S,4R)-1-(5-(((3,4-trans)-1-(5-Chloro-2-methoxypyridin-4-yl)-3-methylpiperidin-4-yl)oxy)-3-fluoropyridin-2-yl)-4-methoxy-3-methylpyrrolidin-2-yl)acetic acid], for which the concentration giving a half-maximal response (EC50) in experiment [1] amounted to 410 nM.
